{"source": "patent US20070128217A1", "about": "(priority 2003, published 2007)", "key": {"[1]": {"tested_on": "control sera (pooled serum of ten healthy LUMC hospital workers; commercial negative donor pooled serum from the Dutch bloodbank)", "assay_type": "binding, human", "design": "Binding of Control serum LUMC to linear peptides / Binding of Control serum Blood-bank to linear peptides / Binding of Control serum LUMC to looped peptides / Binding of Control Serum Blood-Bank to Looped peptides / Binding of Control serum LUMC to linear peptides of the protein M of SARS-CoV Urbani / Binding of Control serum Blood-bank to linear peptides of the protein M of SARS-CoV Urbani / Binding of Control serum LUMC to looped peptides of the protein M of SARS-CoV Urbani / Binding of Control Serum Blood-Bank to Looped peptides of the protein M of SARS-CoV Urbani: unit not given here"}, "[2]": {"tested_on": "antibodies in sera from SARS patients (sera 1a, 1b, 2, 6, 37, 62, London, SARS-yellow, SARS-green)", "assay_type": "binding, human", "design": "Binding of serum 6 to linear peptides of protein X1 of SARS-CoV Urbani / Binding of serum 37 to linear peptides of protein X1 of SARS-CoV Urbani / Binding of serum 6 to looped/cyclic peptide (PEPSCAN-ELISA) / Binding of serum 37 to looped/cyclic peptide (PEPSCAN-ELISA) / Binding of serum 37 to looped/cyclic peptides of protein X1 of SARS-CoV Urbani / Binding of serum 6 to linear peptides of protein X2 / Binding of serum 37 to linear peptides of protein X2 / Binding of serum 37 to looped/cyclic peptides of protein X2 of SARS-CoV Urbani / Binding of serum 6 to linear peptides of protein M of SARS-CoV Urbani / Binding of serum 37 to linear peptides of protein M of SARS-CoV Urbani / Binding of serum 6 to looped/cyclic peptides of protein M of SARS-CoV Urbani / Binding of serum 37 to looped/cyclic peptides of protein M of SARS-CoV Urbani / Binding of serum 6 to linear peptides of protein X3 of SARS-CoV Urbani / Binding of serum 37 to linear peptides of protein X3 of SARS-CoV Urbani / Binding of serum 37 to looped/cyclic peptides of protein X3 of SARS-CoV Urbani / Binding of serum 6 to linear peptides of protein X4 of SARS-CoV Urbani / Binding of serum 37 to linear peptides of protein X4 of SARS-CoV Urbani / Binding of serum 37 to looped/cyclic peptides of protein X4 of SARS-CoV Urbani / Binding of serum 6 to linear peptides of protein X5 of SARS-CoV Urbani / Binding of serum 37 to linear peptides of protein X5 of SARS-CoV Urbani / Binding of serum 37 to looped/cyclic peptides of protein X5 of SARS-CoV Urbani / Binding of serum 6 to linear peptides of protein N of SARS-CoV Urbani / Binding of serum 37 to linear peptides of protein N of SARS-CoV Urbani / Binding of serum 6 to linear peptide (PEPSCAN-ELISA) / Binding of serum 1a to looped/cyclic peptides of protein N of SARS-CoV Urbani / Binding of serum 1b to looped/cyclic peptides of protein N of SARS-CoV Urbani / Binding of serum 2 to looped/cyclic peptides of protein N of SARS-CoV Urbani / Binding of serum 6 to looped/cyclic peptides of protein N of SARS-CoV Urbani / Binding of serum 37 to looped/cyclic peptides of protein N of SARS-CoV Urbani / Binding of serum 62 to looped/cyclic peptides of protein N of SARS-CoV Urbani / Binding of serum London to looped/cyclic peptides of protein N of SARS-CoV Urbani / Binding of serum SARS-green to looped/cyclic peptides of protein N of SARS-CoV Urbani: unit not given here"}, "[3]": {"tested_on": "rabbit serum obtained by immunizing a rabbit with the SARS-CoV strain Frankfurt 1", "assay_type": "binding", "design": "Binding of a rabbit serum to linear peptides / Binding of a rabbit serum to looped peptides / Rabbit serum linear peptides / Rabbit serum looped peptides / Binding of a rabbit serum to linear peptides of protein N of SARS-CoV Urbani (Rabbit serum linear peptides) / Binding of a rabbit serum to looped/cyclic peptides of protein N of SARS-CoV Urbani (Rabbit serum looped peptides): unit not given here"}}, "data": [{"sequence": "FHLVDFQVTIAEILI", "values": [{"measurement": "Binding of Control Serum Blood-Bank to Looped peptides of the protein X3 of SARS-CoV Urbani", "setting": "[1]", "value": 0.7}, {"measurement": "Binding of Control serum Blood-bank to linear peptides of the protein X3 of SARS-CoV Urbani", "setting": "[1]", "value": 0.8}, {"measurement": "Binding of Control serum LUMC to linear peptides of the protein X3 of SARS-CoV Urbani", "setting": "[1]", "value": 0.6}, {"measurement": "Binding of Control serum LUMC to looped peptides of the protein X3 of SARS-CoV Urbani", "setting": "[1]", "value": 0.8}, {"measurement": "Binding of serum 1a to linear peptides of protein X3 of SARS-CoV Urbani", "setting": "[2]", "value": 0.8}, {"measurement": "Binding of serum 1a to looped/cyclic peptides of protein X3 of SARS-CoV Urbani", "setting": "[2]", "value": 0.8}, {"measurement": "Binding of serum 1b to linear peptides of protein X3 of SARS-CoV Urbani", "setting": "[2]", "value": 0.6}, {"measurement": "Binding of serum 1b to looped/cyclic peptides of protein X3 of SARS-CoV Urbani", "setting": "[2]", "value": 0.4}, {"measurement": "Binding of serum 2 to linear peptides of protein X3 of SARS-CoV Urbani", "setting": "[2]", "value": 0.7}, {"measurement": "Binding of serum 2 to looped/cyclic peptides of protein X3 of SARS-CoV Urbani", "setting": "[2]", "value": 0.8}, {"measurement": "Binding of serum 6 to linear peptides of protein X3 of SARS-CoV Urbani", "setting": "[2]", "value": 0.4}, {"measurement": "Binding of serum 6 to looped/cyclic peptides of protein X3 of SARS-CoV Urbani", "setting": "[2]", "value": 0.5}, {"measurement": "Binding of serum 37 to linear peptides of protein X3 of SARS-CoV Urbani", "setting": "[2]", "value": 0.7}, {"measurement": "Binding of serum 37 to looped/cyclic peptides of protein X3 of SARS-CoV Urbani", "setting": "[2]", "value": 0.7}, {"measurement": "Binding of serum 62 to linear peptides of protein X3 of SARS-CoV Urbani", "setting": "[2]", "value": 0.6}, {"measurement": "Binding of serum 62 to looped/cyclic peptides of protein X3 of SARS-CoV Urbani", "setting": "[2]", "value": 0.7}, {"measurement": "Binding of serum London to linear peptides of protein X3 of SARS-CoV Urbani", "setting": "[2]", "value": 0.6}, {"measurement": "Binding of serum London to looped/cyclic peptides of protein X3 of SARS-CoV Urbani", "setting": "[2]", "value": 0.2}, {"measurement": "Binding of serum SARS-green to linear peptides of protein X3 of SARS-CoV Urbani", "setting": "[2]", "value": 0.5}, {"measurement": "Binding of serum SARS-green to looped/cyclic peptides of protein X3 of SARS-CoV Urbani", "setting": "[2]", "value": 0.3}, {"measurement": "Binding of serum SARS-yellow to linear peptides of protein X3 of SARS-CoV Urbani", "setting": "[2]", "value": 0.9}, {"measurement": "Binding of serum SARS-yellow to looped/cyclic peptides of protein X3 of SARS-CoV Urbani", "setting": "[2]", "value": 0.8}, {"measurement": "Rabbit serum linear peptides", "setting": "[3]", "value": 0.3}, {"measurement": "Rabbit serum looped peptides", "setting": "[3]", "value": 0.5}]}, {"sequence": "LVIGAVIIRGHLRMA", "values": [{"measurement": "Binding of Control Serum Blood-Bank to Looped peptides of the protein M of SARS-CoV Urbani", "setting": "[1]", "value": 0.7}, {"measurement": "Binding of Control serum Blood-bank to linear peptides of the protein M of SARS-CoV Urbani", "setting": "[1]", "value": 0.6}, {"measurement": "Binding of Control serum LUMC to linear peptides of the protein M of SARS-CoV Urbani", "setting": "[1]", "value": 0.7}, {"measurement": "Binding of Control serum LUMC to looped peptides of the protein M of SARS-CoV Urbani", "setting": "[1]", "value": 0.7}, {"measurement": "Binding of serum 1a to linear peptides of protein M of SARS-CoV Urbani", "setting": "[2]", "value": 0.7}, {"measurement": "Binding of serum 1a to looped/cyclic peptides of protein M of SARS-CoV Urbani", "setting": "[2]", "value": 0.8}, {"measurement": "Binding of serum 1b to linear peptides of protein M of SARS-CoV Urbani", "setting": "[2]", "value": 0.5}, {"measurement": "Binding of serum 1b to looped/cyclic peptides of protein M of SARS-CoV Urbani", "setting": "[2]", "value": 0.4}, {"measurement": "Binding of serum 2 to linear peptides of protein M of SARS-CoV Urbani", "setting": "[2]", "value": 0.5}, {"measurement": "Binding of serum 2 to looped/cyclic peptides of protein M of SARS-CoV Urbani", "setting": "[2]", "value": 0.8}, {"measurement": "Binding of serum 6 to linear peptides of protein M of SARS-CoV Urbani", "setting": "[2]", "value": 0.6}, {"measurement": "Binding of serum 6 to looped/cyclic peptides of protein M of SARS-CoV Urbani", "setting": "[2]", "value": 1.2}, {"measurement": "Binding of serum 37 to linear peptides of protein M of SARS-CoV Urbani", "setting": "[2]", "value": 0.4}, {"measurement": "Binding of serum 37 to looped/cyclic peptides of protein M of SARS-CoV Urbani", "setting": "[2]", "value": 0.7}, {"measurement": "Binding of serum 62 to linear peptides of protein M of SARS-CoV Urbani", "setting": "[2]", "value": 0.4}, {"measurement": "Binding of serum 62 to looped/cyclic peptides of protein M of SARS-CoV Urbani", "setting": "[2]", "value": 0.8}, {"measurement": "Binding of serum London to linear peptides of protein M of SARS-CoV Urbani", "setting": "[2]", "value": 0.3}, {"measurement": "Binding of serum SARS-green to linear peptides of protein M of SARS-CoV Urbani", "setting": "[2]", "value": 0.4}, {"measurement": "Binding of serum SARS-green to looped/cyclic peptides of protein M of SARS-CoV Urbani", "setting": "[2]", "value": 0.3}, {"measurement": "Binding of serum SARS-yellow to linear peptides of protein M of SARS-CoV Urbani", "setting": "[2]", "value": 0.3}, {"measurement": "Binding of serum SARS-yellow to looped/cyclic peptides of protein M of SARS-CoV Urbani", "setting": "[2]", "value": 0.7}, {"measurement": "Rabbit serum linear peptides", "setting": "[3]", "value": 0.2}, {"measurement": "Rabbit serum looped peptides", "setting": "[3]", "value": 1.4}]}]}
